Measurements from patent US5068465A, “Pharmaceutically active 3-aryl-2-fluoro-1-olefins” (Merrell Dow Pharmaceuticals Inc., priority 1990, dated 1991).

Assays:
[1] = test system: DBH; conditions: J. Biol. Chem., 259, No. 11, 6925 (1984); cited from earlier work
[2] = test system: monoamine oxidase; conditions: J. Med. Chem., 27, 9 (1984); cited from earlier work
[3] = test system: dopamine beta-hydroxylase (DBH); experiment: time-dependent DBH inhibitory activity (tyramine conversion followed by oxygen uptake, polarographic electrode); format: biochemical; conditions: Concentration 12.9 mM; pH about 5; about 37° C.; ascorbate; tyramine substrate; 0.989 correlation
Experimental: The compounds of this invention are useful as dopamine beta-hydroxylase inhibitors for the treatment of, for instance, hypertension. The dopamine beta-hydroxylase (DBH) inhibitory properties of the compounds of this invention can readily be determined by standard and well known procedures. […] The test compound is added at the desired concentration, and the system is incubated. At different time intervals, tyramine, a substrate of DBH, is introduced to aliquots of the incubated enzyme solution and DBH activity is measured by the method of S. May, et al, J. Biol. Chem. 256, 2258 (1981), where the enzyme-activated conversion of tyramine is followed by monitoring oxygen uptake by means of a polarographic electrode and an oxygen monitor, to determine the level of DBH activity.

Structure (SMILES)	mechanism-based inhibitors of DBH [1]	further results
C=C(Br)Cc1ccc(O)cc1 [2-bromo-3-(4-hydroxyphenyl)-1-propene]	mechanism-based inhibitors of DBH	
COc1ccc(C(=CF)CN)cc1OC [2-(3,4-dimethoxyphenyl)-3-fluoroallylamine]		active as a monoamine oxidase inhibitor [2]: active as a monoamine oxidase inhibitor
C=C(Cl)Cc1ccc(O)cc1 [2-chloro-3-(4-hydroxyphenyl)-1-propene]	mechanism-based inhibitors of DBH	
C=C(F)Cc1ccc(O)cc1 [3-(4-Hydroxyphenyl)-2-Fluoro-1-Propene]		t 1/2: time required to reach 50% log activity [3]: 5 min.
